# Reference: ChEMBL document CHEMBL3885861, “Open TG-GATES”
# Organism: Rattus norvegicus
# Assay: Open TG-GATES - Regimen: Single
# Format: toxicity, organism-based, Sprague-Dawley
# Parameters: regimen Single, gender Male, age 6 weeks
# Conditions: in vivo, po, 15 mg/kg, route gavage, dose level Low; for APTT / Bas / Eos / Fbg / Hb / Ht / Lym / MCH / MCHC / MCV / Mono / Neu / PT / Plat / RBC / Ret / WBC: tissue Blood; for KIDNEY_L / KIDNEY_R / KIDNEY_TOTAL: tissue Kidney; for LIVER: tissue Liver; for A/G / ALP / ALT / AST / BUN / CRE / Ca / Cl / DBIL / GLC / IP / K / LDH / Na / PL / RALB / TBIL / TC / TG / TP / gamma-GTP: tissue Plasma
smiles,measurement,setting,value
S=C=Nc1cccc2ccccc12 [1-NAPHTHYLISOTHIOCYANATE],TERMINAL_BW,3 h,226 g
same,APTT,3 h,18.2 s
same,Bas,3 h,0.2%
same,Eos,3 h,0.8%
same,Fbg,3 h,233 mg/dL
same,Hb,3 h,13.7 g/dL
same,Ht,3 h,38.1%
same,Lym,3 h,75.2%
same,MCH,3 h,22 pg
same,MCHC,3 h,35.8%
same,MCV,3 h,61.5 fL
same,Mono,3 h,3%
same,Neu,3 h,20%
same,PT,3 h,11.7 s
same,Plat,3 h,119.1 x10_4/uL
same,RBC,3 h,622.2 x10_4/ul
same,Ret,3 h,8.4%
same,WBC,3 h,91.8 x10_2/uL
same,KIDNEY_L,3 h,1 g
same,KIDNEY_R,3 h,1 g
same,KIDNEY_TOTAL,3 h,2 g
same,LIVER,3 h,10.2 g
same,A/G,3 h,1.6
same,ALP,3 h,1037.2 IU/L
same,ALT,3 h,42.2 IU/L
same,AST,3 h,75 IU/L
same,BUN,3 h,10.6 mg/dL
same,CRE,3 h,0.4 mg/dL
same,Ca,3 h,10.8 mg/dL
same,Cl,3 h,103.8 meq/L
same,DBIL,3 h,0.1 mg/dL
same,GLC,3 h,220.4 mg/dL
same,IP,3 h,10 mg/dL
same,K,3 h,4.1 meq/L
same,LDH,3 h,199.8 IU/L
same,Na,3 h,142 meq/L
same,PL,3 h,159.4 mg/dL
same,RALB,3 h,3.4 g/dL
same,TBIL,3 h,0.1 mg/dL
same,TC,3 h,75.2 mg/dL
same,TG,3 h,135.2 mg/dL
same,TP,3 h,5.6 g/dL
same,gamma-GTP,3 h,0.8 IU/L
same,TERMINAL_BW,6 h,220 g
same,APTT,6 h,18.5 s
same,Bas,6 h,0%
same,Eos,6 h,0.8%
same,Fbg,6 h,243.4 mg/dL
same,Hb,6 h,13.8 g/dL
same,Ht,6 h,38.6%
same,Lym,6 h,75.2%
same,MCH,6 h,21.8 pg
same,MCHC,6 h,35.7%
same,MCV,6 h,60.9 fL
same,Mono,6 h,3.2%
same,Neu,6 h,19.8%
same,PT,6 h,11.8 s
same,Plat,6 h,120.7 x10_4/uL
same,RBC,6 h,634.6 x10_4/ul
same,Ret,6 h,7%
same,WBC,6 h,100.7 x10_2/uL
same,KIDNEY_L,6 h,1 g
same,KIDNEY_R,6 h,1 g
same,KIDNEY_TOTAL,6 h,1.9 g
same,LIVER,6 h,9.6 g
same,A/G,6 h,1.7
same,ALP,6 h,1074.4 IU/L
same,ALT,6 h,32.4 IU/L
same,AST,6 h,68.2 IU/L
same,BUN,6 h,8 mg/dL
same,CRE,6 h,0.4 mg/dL
same,Ca,6 h,10.5 mg/dL
same,Cl,6 h,103.8 meq/L
same,DBIL,6 h,0.1 mg/dL
same,GLC,6 h,235.8 mg/dL
same,IP,6 h,10 mg/dL
same,K,6 h,4.1 meq/L
same,LDH,6 h,196 IU/L
same,Na,6 h,141.6 meq/L
same,PL,6 h,140.2 mg/dL
same,RALB,6 h,3.5 g/dL
same,TBIL,6 h,0.1 mg/dL
same,TC,6 h,77 mg/dL
same,TG,6 h,61 mg/dL
same,TP,6 h,5.6 g/dL
same,gamma-GTP,6 h,1.2 IU/L
same,TERMINAL_BW,9 h,215.5 g
same,APTT,9 h,18 s
same,Bas,9 h,0.2%
same,Eos,9 h,0.8%
same,Fbg,9 h,237 mg/dL
same,Hb,9 h,13.6 g/dL
same,Ht,9 h,38.1%
same,Lym,9 h,74.8%
same,MCH,9 h,21.5 pg
same,MCHC,9 h,35.6%
same,MCV,9 h,60.5 fL
same,Mono,9 h,2.4%
same,Neu,9 h,20.8%
same,PT,9 h,12.1 s
same,Plat,9 h,122.9 x10_4/uL
same,RBC,9 h,631.6 x10_4/ul
same,Ret,9 h,7.1%
same,WBC,9 h,92.1 x10_2/uL
same,KIDNEY_L,9 h,1 g
same,KIDNEY_R,9 h,0.9 g
same,KIDNEY_TOTAL,9 h,1.9 g
same,LIVER,9 h,8.7 g
same,A/G,9 h,1.7
same,ALP,9 h,1018.2 IU/L
same,ALT,9 h,35.8 IU/L
same,AST,9 h,72 IU/L
same,BUN,9 h,10.4 mg/dL
same,CRE,9 h,0.4 mg/dL
same,Ca,9 h,10.4 mg/dL
same,Cl,9 h,104 meq/L
same,DBIL,9 h,0.092 mg/dL
same,GLC,9 h,223 mg/dL
same,IP,9 h,10.1 mg/dL
same,K,9 h,3.8 meq/L
same,LDH,9 h,157.4 IU/L
same,Na,9 h,142.2 meq/L
same,PL,9 h,134.2 mg/dL
same,RALB,9 h,3.6 g/dL
same,TBIL,9 h,0.1 mg/dL
same,TC,9 h,73.2 mg/dL
same,TG,9 h,34.8 mg/dL
same,TP,9 h,5.7 g/dL
same,gamma-GTP,9 h,1 IU/L
same,TERMINAL_BW,24 h,232.5 g
same,APTT,24 h,17.6 s
same,Bas,24 h,0.4%
same,Eos,24 h,0.8%
same,Fbg,24 h,217.8 mg/dL
same,Hb,24 h,13.9 g/dL
same,Ht,24 h,38.5%
same,Lym,24 h,80%
same,MCH,24 h,21.9 pg
same,MCHC,24 h,36%
same,MCV,24 h,60.8 fL
same,Mono,24 h,2%
same,Neu,24 h,16%
same,PT,24 h,11.9 s
same,Plat,24 h,122.9 x10_4/uL
same,RBC,24 h,633.6 x10_4/ul
same,Ret,24 h,6.5%
same,WBC,24 h,106 x10_2/uL
same,KIDNEY_L,24 h,1 g
same,KIDNEY_R,24 h,1 g
same,KIDNEY_TOTAL,24 h,2 g
same,LIVER,24 h,10.3 g
same,A/G,24 h,1.6
same,ALP,24 h,1064.4 IU/L
same,ALT,24 h,39.8 IU/L
same,AST,24 h,73.6 IU/L
same,BUN,24 h,15.6 mg/dL
same,CRE,24 h,0.4 mg/dL
same,Ca,24 h,10.6 mg/dL
same,Cl,24 h,103.8 meq/L
same,DBIL,24 h,0.068 mg/dL
same,GLC,24 h,198 mg/dL
same,IP,24 h,7.3 mg/dL
same,K,24 h,3.8 meq/L
same,LDH,24 h,209.4 IU/L
same,Na,24 h,141.6 meq/L
same,PL,24 h,131 mg/dL
same,RALB,24 h,3.4 g/dL
same,TBIL,24 h,0.1 mg/dL
same,TC,24 h,67.4 mg/dL
same,TG,24 h,84.2 mg/dL
same,TP,24 h,5.5 g/dL
same,gamma-GTP,24 h,1.6 IU/L
